Measured values taken from patent US20230003721A1, “MITOTHERAPEUTICS FOR THE TREATMENT OF BRAIN DISORDERS” (The University of Florida Research Foundation, Inc., priority 2019, published 2023).
Counter-ions that a name gives are not always drawn. Like-named read-outs stand apart in the source and are kept apart here.

How the values were obtained:
primary neurons [1] = test: TMRM fluorescence assay of inner mitochondrial membrane potential (ΔΨm); settings: for Emax / EC50: Mus musculus, Primary neuron; for Emax: read-out: TMRM (Effect-size); for EC50: read-out: TMRM-EC50
Experimental: Mitochondrial dyes. To assay the electrochemical potential across the inner mitochondrial membrane of cultured cells, we used the cell-permeant dye tetramethylrhodamine methyl ester (TMRM). For co-localization studies with Mt-GFP, TMRM was used at 20 nM on DIV14 and incubated for 30 min prior to imaging. For the orthogonal screen of compounds, TMRM was added to primary neurons on DIV13 at 10 nM, one hr prior to pintooling selected compounds, and incubated for 24 hr. Cells were washed 2× with pre-warmed fresh feeding media without B27 before measurements with a plate reader.
(§1) A CLARIOstar (BMG LABTECH) microplate reader was used to measure fluorescence of TMRM and luminescence produced from the ATP.
(§2) Mitochondrial membrane potential (Δψm) and luminescence-based ATP assays. […] Changes of ΔΨm in each well were monitored using the mitochondrial-specific, fluorescent dye TMRM (tetramethyl rhodamine, methyl ester; Molecular Probes) and measured using a CLARIOstar plate reader. […] This concentration was used throughout our experiments. […] Wells in columns 1 and 24 were not loaded with TMRM; these served to measure background signal which was subtracted from the wells to which TMRM was added. To measure the total ATP levels in neurons we utilized the CellTiter-Glo® luminescence-based ATP assay (Promega). DIV13 primary neurons were cultured for 24 h with either DMSO carrier or compound treatment, followed by removing 55 μl culture medium from each well. Plates were maintained at room temperature for 25 m, and 25 μl of CellTiter-Glo® Reagent with the substrate luciferin was then added to each well (Promega). Plates were covered with aluminum foil and shaken vigorously on an orbital shaker for 10 m at 200 rpm and maintained at room temperature for an additional 2 m in dark before being read with the plate reader set to the luminescence mode.
Compound library and hit picking rules. We screened 2400 compounds from the MicroSource Spectrum library. […] FIGS. 13A-13E provide details of the assays used from which hit picking rules were made. In essence, the average fluorescence for each compound in the TMRM assay was determined and compared to the average fluorescence for compounds in the population on each assay plate to produce a Z-score. The Z-scores for each individual compound assayed across the four replicate plates was then averaged.

primary neurons [2] = test: CellTiter-Glo luminescence-based ATP assay; type: cell-based, mouse; settings: for ATP: ATP orthogonal screen, 24 h; for EC50 / Emax: Mus musculus, Primary neuron, dose response; for EC50: 15 concentrations from 6 nM to 100 uM; for Emax: maximal percent increase relative to in-plate DMSO controls, read-out: ATP (Effect-size)
Experimental: Measurement of ATP production. The total amount of ATP produced by cultured primary neurons was measured by CellTiter-Glo Luminescent Cell Viability Assay (Promega). A recombinant luciferase enzyme catalyzed the mono-oxygenation of luciferin while hydrolyzing ATP produced by the cells and emitting light. We followed the manufacturer's protocol with primary neurons on DIV14.
as §1, §2
Compound library and hit picking rules. We screened 2400 compounds from the MicroSource Spectrum library. […] FIGS. 13A-13E provide details of the assays used from which hit picking rules were made. In essence, the average fluorescence for each compound in the TMRM assay was determined and compared to the average fluorescence for compounds in the population on each assay plate to produce a Z-score. The Z-scores for each individual compound assayed across the four replicate plates was then averaged. Because of significant well location effects (outer rows) on each assay plate (FIG. 13G), we selected primary hits as enhancing well fluorescence above the μplate by 3σplate for inner row wells (rows C-N, columns 3-22), and by 2.5σplate for outer row wells (rows A, B, O, P; columns 3-22) (FIG. 14C-D). […] All orthogonal assays employed inner wells of the 384-well plates.

| SMILES | Emax (primary neurons [1]) | EC50 (primary neurons [1]) | TMRM Primary (primary neurons [1]; primary screen, 12.5 μM, 24 h) | TMRM Rescreen (primary neurons [1]; rescreen, 24 h) | ATP (primary neurons [2]) | EC50 (primary neurons [2]) | Emax (primary neurons [2]) | hit in TMRM primary screen when assayed at 4 h (primary neurons [1]; 12.5 μM) | TMRM Primary (primary neurons [1]) | TMRM Rescreen (primary neurons [1]) |
| --- | --- | --- | --- | --- | --- | --- | --- | --- | --- | --- |
| COC(=O)[C@H]1[C@H]2C[C@@H]3c4[nH]c5cc(OC)ccc5c4CCN3C[C@H]2C[C@@H](OC(=O)c2cc(OC)c(OC)c(OC)c2)[C@@H]1OC [reserpine] | 22.5% | 640 nM | 7.44 Z-scores | 7.89 Z-scores | 5.29 Z-scores | 120 nM | 20.5% |  |  |  |
| CCCCN1CCCCC1C(=O)Nc1c(C)cccc1C (stereo not drawn) [bupivacaine hydrochloride] |  |  | 5.35 Z-scores | 5.25 Z-scores | 4.80 Z-scores |  |  |  |  |  |
| COc1ccc(C(=O)/C=C/c2ccccc2)cc1 [4′-methoxychalcone] |  |  | 3.42 Z-scores | 1.48 Z-scores | 3.97 Z-scores |  |  |  |  |  |
| CN1CCN(CC/C=C2/c3ccccc3Sc3ccc(S(=O)(=O)N(C)C)cc32)CC1 [thiothixene] |  |  | 3.08 Z-scores | 3.38 Z-scores | 3.80 Z-scores |  |  |  |  |  |
| CN(C)CCOc1ccc(/C(=C(/CCCl)c2ccccc2)c2ccccc2)cc1 [toremifene citrate] |  |  | 3.31 Z-scores | 7.05 Z-scores | 3.29 Z-scores |  |  |  |  |  |
| CC(C)c1ccc2c(c1)CC[C@H]1[C@](C)(C(N)=O)CCC[C@]21C [dehydroabietamide] |  |  | 3.42 Z-scores | 5.12 Z-scores | 4.15 Z-scores |  |  |  |  |  |
| CCN(CC)CCOC(=O)C(Cc1cccc2ccccc12)CC1CCCO1 (stereo not drawn) [nafronyl oxalate] |  |  | 4.08 Z-scores | 5.89 Z-scores | 5.17 Z-scores |  |  | nafronyl oxalate* |  |  |
| CN1CCCC(n2nc(Cc3ccc(Cl)cc3)c3ccccc3c2=O)CC1 (stereo not drawn) [azelastine hydrochloride] |  |  | 7.06 Z-scores | 6.13 Z-scores | 5.30 Z-scores |  |  |  |  |  |
| COc1ccc(-c2coc3cc(O)cc(OC)c3c2=O)cc1 [5,4′-dimethoxy-7-hydroxyisoflavone] |  |  | 5.24 Z-scores | 6.90 Z-scores | 5.76 Z-scores |  |  |  |  |  |
| CN1CCC(=C2c3ccccc3CC(=O)c3sccc32)CC1 [ketotifen fumarate] |  |  | 3.91 Z-scores | 3.98 Z-scores | 5.58 Z-scores |  |  | ketotifen fumarate* |  |  |
| C=CCc1ccc(O)c(OC)c1 [eugenol] |  |  | 4.17 Z-scores | 3.10 Z-scores | 4.39 Z-scores |  |  | eugenol* |  |  |
| O=C(Nc1ccccc1)OCC(CN1CCCCC1)OC(=O)Nc1ccccc1 (stereo not drawn) [diperodon hydrochloride] |  |  | 3.75 Z-scores | 6.07 Z-scores | 8.02 Z-scores |  |  |  |  |  |
| CN(C/C=C/c1ccccc1)Cc1cccc2ccccc12 [naftifine hydrochloride] |  |  | 3.26 Z-scores | 4.64 Z-scores | 4.65 Z-scores |  |  |  |  |  |
| CCCCOc1cc(C(=O)NCCN(CC)CC)c2ccccc2n1 [dibucaine hydrochloride] |  |  | 3.83 Z-scores | 6.82 Z-scores | 6.22 Z-scores |  |  |  |  |  |
| COC(=O)[C@H]1[C@H]2C[C@H]3c4[nH]c5ccccc5c4CCN3C[C@H]2CC[C@@H]1O [rauwolscine hydrochloride] | 29.4% | 4580 nM | 4.30 Z-scores | 8.77 Z-scores | 8.40 Z-scores | 1000 nM | 20.9% |  |  |  |
| CN(C)c1cc(NC(=O)CNC(C)(C)C)c(O)c2c1C[C@H]1C[C@H]3[C@H](N(C)C)C(O)=C(C(N)=O)C(=O)[C@@]3(O)C(O)=C1C2=O [tigecycline] |  |  | 3.91 Z-scores | 5.95 Z-scores | 4.97 Z-scores |  |  |  |  |  |
| CCc1nc(N)nc(N)c1-c1ccc(Cl)cc1 [pyrimethamine] |  |  | 3.43 Z-scores | 4.00 Z-scores | 6.54 Z-scores |  |  | pyrimethamine* |  |  |
| CC(C)NCC(O)COc1cccc2ccccc12.Cl (racemic) [propranolol hydrochloride (+/−)] |  |  | 4.03 Z-scores | 3.07 Z-scores | 5.06 Z-scores |  |  |  |  |  |
| CC12CCC3c4ccc(OCc5ccccc5)cc4CCC3C1C[C@@H](O)[C@@H]2O (stereo partly drawn) [estriol benzyl ether] |  |  | 3.17 Z-scores | 6.67 Z-scores | 2.03 Z-scores |  |  |  |  |  |
| COCCOC(=O)C1=C(C)NC(C)=C(C(=O)OC(C)C)C1c1cccc([N+](=O)[O-])c1 (stereo not drawn) [nimodipine] |  |  | 4.40 Z-scores | 3.98 Z-scores | 6.53 Z-scores |  |  |  |  |  |
| O=C1CCc2ccc(OCCCCN3CCN(c4cccc(Cl)c4Cl)CC3)cc2N1 [aripiprazole] |  |  | 2.98 Z-scores | 7.76 Z-scores | 3.66 Z-scores |  |  |  |  |  |
| C[C@]12CC[C@@H](O)C[C@@H]1CC[C@@H]1[C@@H]2CC[C@]2(C)C(=O)CC[C@@H]12 [androsterone] |  |  |  |  | 5.63 Z-scores |  |  |  | 3.77 Z-scores | 4.76 Z-scores |
| O=c1[nH]c2ccccc2n1CCCN1CCC(n2c(=O)[nH]c3cc(Cl)ccc32)CC1 [DOMPERIDONE] | 28.3% |  | 3.33 Z-scores | 5.58 Z-scores | 5.20 Z-scores |  | 13% |  |  |  |
| CN1CCN(C2=Nc3cc(Cl)ccc3Nc3ccccc32)CC1 [clozapine] |  |  | 3.24 Z-scores | 5.80 Z-scores | 3.88 Z-scores |  |  |  |  |  |
| OC(c1cc(C(F)(F)F)nc2c(C(F)(F)F)cccc12)C1CCCCN1 (stereo not drawn) [mefloquine] |  |  | 3.75 Z-scores | 5.54 Z-scores | 5.09 Z-scores |  |  |  |  |  |
| O=C(c1ccc(F)cc1)C1CCN(CCn2c(=O)[nH]c3ccccc3c2=O)CC1 [ketanserin tartrate] | 30% | 1300 nM | 5.62 Z-scores | 5.26 Z-scores | 5.68 Z-scores | 160 nM | 19.1% |  |  |  |
| CCCNCC(O)COc1ccccc1C(=O)CCc1ccccc1 (stereo not drawn) [propafenone hydrochloride] |  |  | 3.75 Z-scores | 5.04 Z-scores | 5.18 Z-scores |  |  |  |  |  |
